# Data as given in PubChem BioAssay AID1963841 (Molecular Pharmacology Branch, DTP, NCI, 2024).
# Test system: 439559-082-T-J2-PDC spheroid viability
# Assay: Anticancer human tumor 439559-082-T-J2-PDC patient-derived colon adenocarcinoma cell line growth inhibition [POLQ]
# Settings: spheroids with HUVEC and MSC; for IC50: curve of first compound; for viability, T/C: stronger effect = lower value
# In short: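 Complex spheroid viability model combining PDC tumour cells with endothelial (HUVEC) and MSC stromal cells. Novobiocin, ART-558 or RP6685 were tested singly and in combination with standard and investigational anticancer drugs. Each was titrated in half-log steps from near clinical Cmax, or from 10 microM where Cmax was unknown.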
# [1] = second compound 0.0316 µM, first compound 0.0316 µM
# [2] = second compound 0.0316 µM, first compound 0.1 µM
# [3] = second compound 0.0316 µM, first compound 0.316 µM
# [4] = second compound 0.0316 µM, first compound 1 µM
# [5] = second compound 0.1 µM, first compound 0.0316 µM
# [6] = second compound 0.1 µM, first compound 0.1 µM
# [7] = second compound 0.1 µM, first compound 0.316 µM
# [8] = second compound 0.1 µM, first compound 1 µM
# [9] = second compound 0.316 µM, first compound 0.0316 µM
# [10] = second compound 0.316 µM, first compound 0.1 µM
# [11] = second compound 0.316 µM, first compound 0.316 µM
# [12] = second compound 0.316 µM, first compound 1 µM
# [13] = second compound 1 µM, first compound 0.0316 µM
# [14] = second compound 1 µM, first compound 0.1 µM
# [15] = second compound 1 µM, first compound 0.316 µM
# [16] = second compound 1 µM, first compound 1 µM
# [17] = second compound 3.16 µM, first compound 0.0316 µM
# [18] = second compound 3.16 µM, first compound 0.1 µM
# [19] = second compound 3.16 µM, first compound 0.316 µM
# [20] = second compound 3.16 µM, first compound 1 µM
# [21] = second compound 10 µM, first compound 0.0316 µM
# [22] = second compound 10 µM, first compound 0.1 µM
# [23] = second compound 10 µM, first compound 0.316 µM
# [24] = second compound 10 µM, first compound 1 µM
# [25] = second compound 0.0316 µM, first compound 3.16 µM
# [26] = second compound 0.0316 µM, first compound 10 µM
# [27] = second compound 0.1 µM, first compound 3.16 µM
# [28] = second compound 0.1 µM, first compound 10 µM
# [29] = second compound 0.316 µM, first compound 3.16 µM
# [30] = second compound 0.316 µM, first compound 10 µM
# [31] = second compound 1 µM, first compound 3.16 µM
# [32] = second compound 1 µM, first compound 10 µM
# [33] = second compound 3.16 µM, first compound 3.16 µM
# [34] = second compound 3.16 µM, first compound 10 µM
# [35] = second compound 10 µM, first compound 3.16 µM
# [36] = second compound 10 µM, first compound 10 µM
# 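Note: spheroids exposed to compounds for seven days before readout.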
# 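Throughout, for viability, T/C: 100% = DMSO vehicle control viability.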
smiles,measurement,setting,value
CCc1c2c(nc3ccc(O)cc13)-c1cc3c(c(=O)n1C2)COC(=O)[C@]3(O)CC + COC1C(OC(N)=O)C(O)C(Oc2ccc3c(O)c(NC(=O)c4ccc(O)c(CC=C(C)C)c4)c(=O)oc3c2C)OC1(C)C,IC50,second compound 0.0316 µM,0.487 µM
same,IC50,second compound 0.1 µM,0.401 µM
same,IC50,second compound 0.316 µM,0.458 µM
same,IC50,second compound 1 µM,0.377 µM
same,IC50,second compound 3.16 µM,0.332 µM
same,IC50,second compound 10 µM,0.287 µM
same,"viability, T/C","second compound 0.0316 µM, first compound 0.00316 µM",90.4%
same,"viability, T/C","second compound 0.0316 µM, first compound 0.01 µM",83.8%
same,"viability, T/C",[1],69.8%
same,"viability, T/C",[2],69.3%
same,"viability, T/C",[3],58.9%
same,"viability, T/C",[4],39%
same,"viability, T/C","second compound 0.1 µM, first compound 0.00316 µM",97.3%
same,"viability, T/C","second compound 0.1 µM, first compound 0.01 µM",84.3%
same,"viability, T/C",[5],70.7%
same,"viability, T/C",[6],66.7%
same,"viability, T/C",[7],57.7%
same,"viability, T/C",[8],36.6%
same,"viability, T/C","second compound 0.316 µM, first compound 0.00316 µM",98.5%
same,"viability, T/C","second compound 0.316 µM, first compound 0.01 µM",92.2%
same,"viability, T/C",[9],73.1%
same,"viability, T/C",[10],67.9%
same,"viability, T/C",[11],58.6%
same,"viability, T/C",[12],38.5%
same,"viability, T/C","second compound 1 µM, first compound 0.00316 µM",95.8%
same,"viability, T/C","second compound 1 µM, first compound 0.01 µM",83.7%
same,"viability, T/C",[13],65.4%
same,"viability, T/C",[14],63%
same,"viability, T/C",[15],59.6%
same,"viability, T/C",[16],36.8%
same,"viability, T/C","second compound 3.16 µM, first compound 0.00316 µM",90.5%
same,"viability, T/C","second compound 3.16 µM, first compound 0.01 µM",81.3%
same,"viability, T/C",[17],71.8%
same,"viability, T/C",[18],62%
same,"viability, T/C",[19],52.7%
same,"viability, T/C",[20],36.8%
same,"viability, T/C","second compound 10 µM, first compound 0.00316 µM",80.8%
same,"viability, T/C","second compound 10 µM, first compound 0.01 µM",82%
same,"viability, T/C",[21],64.6%
same,"viability, T/C",[22],61.5%
same,"viability, T/C",[23],53.1%
same,"viability, T/C",[24],28.3%
O=c1[nH]cc(F)c(=O)[nH]1 + Cc1cccc(N(C)C(=O)C2C(O)CCN2c2nc(C)cc(C(F)(F)F)c2C#N)c1,IC50,second compound 0.0316 µM,> 10 µM
same,IC50,second compound 0.1 µM,> 10 µM
same,IC50,second compound 0.316 µM,> 10 µM
same,IC50,second compound 1 µM,> 10 µM
same,IC50,second compound 3.16 µM,> 10 µM
same,IC50,second compound 10 µM,> 10 µM
same,"viability, T/C",[1],102%
same,"viability, T/C",[2],93.3%
same,"viability, T/C",[3],82.2%
same,"viability, T/C",[4],78.3%
same,"viability, T/C",[25],71.9%
same,"viability, T/C",[26],66.7%
same,"viability, T/C",[5],106%
same,"viability, T/C",[6],91.4%
same,"viability, T/C",[7],80.8%
same,"viability, T/C",[8],76.6%
same,"viability, T/C",[27],73.4%
same,"viability, T/C",[28],70%
same,"viability, T/C",[9],104%
same,"viability, T/C",[10],97.4%
same,"viability, T/C",[11],84.6%
same,"viability, T/C",[12],75.1%
same,"viability, T/C",[29],73.1%
same,"viability, T/C",[30],68.8%
same,"viability, T/C",[13],97.5%
same,"viability, T/C",[14],94.4%
same,"viability, T/C",[15],84.3%
same,"viability, T/C",[16],73.7%
same,"viability, T/C",[31],76.7%
same,"viability, T/C",[32],71%
same,"viability, T/C",[17],93.1%
same,"viability, T/C",[18],94%
same,"viability, T/C",[19],84.5%
same,"viability, T/C",[20],72%
same,"viability, T/C",[33],71%
same,"viability, T/C",[34],68%
same,"viability, T/C",[21],91.8%
same,"viability, T/C",[22],83.3%
same,"viability, T/C",[23],78.7%
same,"viability, T/C",[24],70.8%
same,"viability, T/C",[35],71%
same,"viability, T/C",[36],64%
C=CC(=O)N1CCN(c2nc(=O)n(-c3c(C)ccnc3C(C)C)c3nc(-c4c(O)cccc4F)c(F)cc23)C(C)C1 (stereo unspecified) + COC1C(OC(N)=O)C(O)C(Oc2ccc3c(O)c(NC(=O)c4ccc(O)c(CC=C(C)C)c4)c(=O)oc3c2C)OC1(C)C,IC50,second compound 0.0316 µM,> 10 µM
same,IC50,second compound 0.1 µM,> 10 µM
same,IC50,second compound 0.316 µM,> 10 µM
same,IC50,second compound 1 µM,> 10 µM
same,IC50,second compound 3.16 µM,> 10 µM
same,IC50,second compound 10 µM,> 10 µM
same,"viability, T/C",[1],95.8%
same,"viability, T/C",[2],93.5%
same,"viability, T/C",[3],104%
same,"viability, T/C",[4],101%
same,"viability, T/C",[25],104%
same,"viability, T/C",[26],91.4%
same,"viability, T/C",[5],96.7%
same,"viability, T/C",[6],105%
same,"viability, T/C",[7],98%
same,"viability, T/C",[8],101%
same,"viability, T/C",[27],106%
same,"viability, T/C",[28],96.9%
same,"viability, T/C",[9],103%
same,"viability, T/C",[10],96.3%
same,"viability, T/C",[11],99.7%
same,"viability, T/C",[12],101%
same,"viability, T/C",[29],107%
same,"viability, T/C",[30],98.6%
same,"viability, T/C",[13],106%
same,"viability, T/C",[14],105%
same,"viability, T/C",[15],97.6%
same,"viability, T/C",[16],101%
same,"viability, T/C",[31],109%
same,"viability, T/C",[32],98.8%
same,"viability, T/C",[17],98.1%
same,"viability, T/C",[18],101%
same,"viability, T/C",[19],101%
same,"viability, T/C",[20],104%
same,"viability, T/C",[33],98.5%
same,"viability, T/C",[34],102%
same,"viability, T/C",[21],103%
same,"viability, T/C",[22],92.8%
same,"viability, T/C",[23],98.8%
same,"viability, T/C",[24],109%
same,"viability, T/C",[35],106%
same,"viability, T/C",[36],98.8%
